Here are results for seven compounds from ChEMBL document CHEMBL3352669, “Tetrahydrobenzo[h][1,6]naphthyridine-6-chlorotacrine hybrids as a new family of anti-Alzheimer agents targeting β-amyloid, tau, and cholinesterase pathologies” (Eur J Med Chem, 2014).

One experiment has as its target Acetylcholinesterase (Homo sapiens, UniProt P22303). The experiment in a line: Inhibition of human recombinant AChE using acetylthiocholine iodide as substrate by spectrophotometric analysis.
Experiment [1] has as its target Microtubule-associated protein tau (Homo sapiens) (UniProt P10636). The experiment in a line: Inhibition of aggregation of tau protein (unknown origin) expressed in Escherichia coli BL21 (DE3) assessed as amyloid fibril formation at 10 uM after 24 hrs by thioflavin S fluorescence method.
The target of a further experiment is Cholinesterase (Homo sapiens, UniProt P06276). Put plainly: Inhibition of human recombinant BChE using butyrylthiocholine iodide as substrate by spectrophotometric analysis.
The target in experiment [2] is Amyloid-beta precursor protein (Homo sapiens) (UniProt P05067). The experiment in a line: Inhibition of aggregation of amyloid beta-42 (unknown origin) expressed in Escherichia coli BL21 (DE3) assessed as amyloid fibril formation at 10 uM after 24 hrs by thioflavin S fluorescence method.
Sequence of Amyloid-beta precursor protein (Homo sapiens) (P05067 whole entry): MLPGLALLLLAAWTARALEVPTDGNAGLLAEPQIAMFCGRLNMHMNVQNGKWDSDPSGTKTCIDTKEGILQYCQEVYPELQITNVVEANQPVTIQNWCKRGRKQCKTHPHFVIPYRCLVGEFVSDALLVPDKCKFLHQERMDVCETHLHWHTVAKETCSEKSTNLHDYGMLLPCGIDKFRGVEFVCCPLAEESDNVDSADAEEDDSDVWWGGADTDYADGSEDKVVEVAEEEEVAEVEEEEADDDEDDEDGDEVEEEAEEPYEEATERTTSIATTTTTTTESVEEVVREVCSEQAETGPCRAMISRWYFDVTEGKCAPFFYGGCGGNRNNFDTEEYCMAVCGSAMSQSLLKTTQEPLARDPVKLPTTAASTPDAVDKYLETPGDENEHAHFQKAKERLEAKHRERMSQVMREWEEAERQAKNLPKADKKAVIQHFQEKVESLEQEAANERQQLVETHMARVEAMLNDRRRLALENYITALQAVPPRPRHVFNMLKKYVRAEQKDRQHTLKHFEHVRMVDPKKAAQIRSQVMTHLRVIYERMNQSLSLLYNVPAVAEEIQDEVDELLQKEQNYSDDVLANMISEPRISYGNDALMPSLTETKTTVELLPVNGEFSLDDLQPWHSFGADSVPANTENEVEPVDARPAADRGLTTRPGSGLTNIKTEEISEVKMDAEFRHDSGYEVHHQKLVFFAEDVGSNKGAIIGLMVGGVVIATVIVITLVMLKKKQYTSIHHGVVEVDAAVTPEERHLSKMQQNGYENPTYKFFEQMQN

Sequence of Cholinesterase (P06276 whole entry): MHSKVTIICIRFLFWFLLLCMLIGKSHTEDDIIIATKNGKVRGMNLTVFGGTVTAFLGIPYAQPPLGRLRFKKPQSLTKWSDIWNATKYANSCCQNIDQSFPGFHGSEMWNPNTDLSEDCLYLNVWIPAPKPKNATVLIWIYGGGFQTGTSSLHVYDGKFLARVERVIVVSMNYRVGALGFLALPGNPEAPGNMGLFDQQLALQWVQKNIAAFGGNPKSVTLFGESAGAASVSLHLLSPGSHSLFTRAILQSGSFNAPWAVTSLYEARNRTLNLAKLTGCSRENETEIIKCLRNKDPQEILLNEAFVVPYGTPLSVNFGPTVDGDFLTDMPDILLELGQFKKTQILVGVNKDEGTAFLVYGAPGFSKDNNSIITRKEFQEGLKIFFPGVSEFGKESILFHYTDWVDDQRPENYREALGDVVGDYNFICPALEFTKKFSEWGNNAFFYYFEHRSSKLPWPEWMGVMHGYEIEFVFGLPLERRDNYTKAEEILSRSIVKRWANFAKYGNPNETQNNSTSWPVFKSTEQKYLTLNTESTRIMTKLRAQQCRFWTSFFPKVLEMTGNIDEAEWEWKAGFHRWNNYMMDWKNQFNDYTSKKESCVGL
Sequence of Acetylcholinesterase (P22303 whole entry): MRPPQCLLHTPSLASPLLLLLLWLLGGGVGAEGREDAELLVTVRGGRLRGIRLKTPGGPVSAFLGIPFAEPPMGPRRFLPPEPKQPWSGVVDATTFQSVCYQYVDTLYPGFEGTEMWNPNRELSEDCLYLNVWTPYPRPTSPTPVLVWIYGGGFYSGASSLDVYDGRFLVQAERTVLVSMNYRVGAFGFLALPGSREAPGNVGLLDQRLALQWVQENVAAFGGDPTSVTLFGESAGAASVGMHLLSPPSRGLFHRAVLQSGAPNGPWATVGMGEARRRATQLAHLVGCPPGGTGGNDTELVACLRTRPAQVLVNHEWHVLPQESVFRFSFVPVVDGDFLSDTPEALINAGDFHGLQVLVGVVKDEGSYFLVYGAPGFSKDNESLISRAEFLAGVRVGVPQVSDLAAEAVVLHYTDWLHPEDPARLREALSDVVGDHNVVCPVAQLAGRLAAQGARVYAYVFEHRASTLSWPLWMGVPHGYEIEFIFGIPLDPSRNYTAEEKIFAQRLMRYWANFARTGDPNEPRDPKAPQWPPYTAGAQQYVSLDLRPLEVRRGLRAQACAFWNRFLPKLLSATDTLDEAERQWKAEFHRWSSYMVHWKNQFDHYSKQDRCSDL
Sequence of Microtubule-associated protein tau (Homo sapiens) (P10636 whole entry): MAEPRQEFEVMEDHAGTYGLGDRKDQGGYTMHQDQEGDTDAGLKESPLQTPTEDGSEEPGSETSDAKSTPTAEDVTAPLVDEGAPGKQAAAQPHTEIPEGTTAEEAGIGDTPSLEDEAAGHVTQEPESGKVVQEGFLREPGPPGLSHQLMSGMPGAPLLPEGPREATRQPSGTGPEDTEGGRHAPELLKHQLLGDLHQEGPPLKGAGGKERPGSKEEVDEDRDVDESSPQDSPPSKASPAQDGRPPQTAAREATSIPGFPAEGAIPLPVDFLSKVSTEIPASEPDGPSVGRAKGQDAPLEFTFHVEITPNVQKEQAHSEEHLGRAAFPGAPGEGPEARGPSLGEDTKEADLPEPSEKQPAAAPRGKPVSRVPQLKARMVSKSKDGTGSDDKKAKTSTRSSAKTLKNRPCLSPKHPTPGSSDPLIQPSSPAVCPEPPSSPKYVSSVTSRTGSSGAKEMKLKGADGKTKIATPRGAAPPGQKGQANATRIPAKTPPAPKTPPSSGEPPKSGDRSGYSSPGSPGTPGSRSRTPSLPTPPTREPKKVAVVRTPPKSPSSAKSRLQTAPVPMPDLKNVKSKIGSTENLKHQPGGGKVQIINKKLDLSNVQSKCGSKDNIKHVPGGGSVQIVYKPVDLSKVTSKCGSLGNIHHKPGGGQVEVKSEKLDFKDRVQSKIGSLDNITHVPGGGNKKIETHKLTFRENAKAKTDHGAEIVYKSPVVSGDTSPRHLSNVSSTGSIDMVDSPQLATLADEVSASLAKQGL

Take `CCOC(=O)c1ccc2nc(-c3ccc(Cl)cc3)c3c(c2c1)OCCC3`: the IC50 entry on Acetylcholinesterase and on Cholinesterase was “Not Active” throughout. In addition, the inhibition (in general, how much of the control response was suppressed) came out at 27.9% in experiment [1] and 41.8% in experiment [2].
As for `O=C(NCCCCCNc1c2c(nc3cc(Cl)ccc13)CCCC2)c1ccc2nc(-c3ccc(Cl)cc3)c3c(c2c1)NCCC3`, the results for the IC50 at Acetylcholinesterase (read-out: IC50) and on Cholinesterase (read-out: IC50) were 14.2 nM and 337 nM, respectively. Also, the inhibition was 57.7% in experiment [1] and 54.3% in experiment [2].
As for `Nc1c2c(nc3cc(Cl)ccc13)CCCC2`, the inhibition was determined as 1.4% in experiment [1] and 11% in experiment [2].
For the compound `O=C(NCCCNc1c2c(nc3cc(Cl)ccc13)CCCC2)c1ccc2nc(-c3ccc(Cl)cc3)c3c(c2c1)NCCC3`, the half-maximal inhibitory concentration (IC50) (in general, the concentration needed to halve the response being measured) on Acetylcholinesterase (read-out: IC50) came out at 0.006 nM; on Cholinesterase (read-out: IC50), 120 nM. The inhibition in experiment [1] came to 40.7%; in experiment [2] it was 52.5%.
Consider `O=C(NCCCCCCCCNc1c2c(nc3cc(Cl)ccc13)CCCC2)c1ccc2nc(-c3ccc(Cl)cc3)c3c(c2c1)NCCC3`, for which the inhibition in experiment [1] is 68.7%; in experiment [2] it was 77.5%.
`O=C(NCCCCNc1c2c(nc3cc(Cl)ccc13)CCCC2)c1ccc2nc(-c3ccc(Cl)cc3)c3c(c2c1)NCCC3`: the IC50 on Acetylcholinesterase (read-out: IC50) is 14.2 nM; on Cholinesterase (read-out: IC50) it was 205 nM. The inhibition worked out at 58.9% in experiment [1] and 55.8% in experiment [2].
On the same counts, the results for `O=C(NCCCCCCCCNc1c2c(nc3cc(Cl)ccc13)CCCC2)c1ccc2nc(-c3ccc(Cl)cc3)c3c(c2c1)OCCC3` are 19.3 nM, 223 nM, 37.8% and 54.6%.
